Publication PMC5702336, “Critical Role of Hepatic Cyp450s in the Testis-Specific Toxicity of (5R)-5-Hydroxytriptolide in C57BL/6 Mice” (Frontiers in Pharmacology, 2017)

Key:
testes gene expression = assay: qPCR of AR-related, Sertoli cell and germ cell marker genes in testes; format: in vivo, mouse
Protocol: For toxicity experiments, mice (n = 3/group) were treated with LLDT-8 (0.5 or 1.0 mg/kg) consecutively administered by gavage for 15 days. Controls received saline. Mice were killed on the 15th-day post-administration and blood, liver, kidney, spleen, testes, and epididymis were collected. About 500 μL blood samples were collected from the heart. The main lobe of the liver, kidney, spleen, and epididymis was fixed in 10% neutral buffered formalin for histological examination, and the left testicle was fixed in modified Davidson's buffer (30% of a 37–40% solution of formaldehyde, 15% ethanol, 5% glacial acetic acid, and 50% distilled H2O) for 16 h followed by 10% neutral buffered formalin for 24 h (Latendresse et al., [2002]). Tissue sections were stained with hematoxylin and eosin (H&E). Remaining tissues were stored at −80°C for RNA and protein extraction.
Total mouse testes RNA was isolated using a UNIQ-10 total RNA isolation kit (Sangon Biotech, Shanghai, China). One micro gram RNA per sample was reverse-transcribed into cDNA using a PrimeScript RT reagent kit (Cat. No. RR036A, Takara, Dalian, China). The purity and quality of RNA and cDNA were checked by A260/A280 ratio and agarose gel. The qPCR was executed in 20 μL volume containing 10 μL SYBR Premix Ex Taq (Cat. No. RR820A, Takara, Dalian, China), 8 μL of cDNA (80 ng cDNA), 1 μL forward primer (500 nM) and 1 μL reverse primer (500 nM). The sequences of primers for Androgen-binding protein (ABP) and cystatin 12 (Cst12) were referenced from PrimerBank. The sequences for other genes were described elsewhere [Deleted in azoospermia-like (Dazl), Heat shock protein a2 (Hspa2), Phosphoglycerate kinase-2 (Pgk2), Protamine 1 (Prm1), GATA binding protein 1 (Gata1) and Zbtb16 zinc finger and BTB domain containing 16 (Plzf) (Qi et al., [2016]); AR (Ma et al., [2013]); Reproductive homeobox 5 (Rhox5) (Kurek et al., [2015]); Fatty acid binding protein (FABP) (Vanschoonbeek et al., [2008]); Claudin 11 (Cldn11) (Sumigray et al., [2014]); β-actin (Wan et al., [2017])]. The qPCR process was performed using a Rotor Gene Q PCR system (QIAGEN, Shanghai, China). The qPCR amplification program consisted of polymerase activation at 98°C for the 30 s and 40 cycles of denaturation at 95°C for 5 s, annealing, and extension at 60°C for 40 s. The melting curve analysis was carried out for each reaction from 50 to 99°C. The CT values for the samples were normalized to the corresponding β-actin CT values.

mice testes = assay: Testicular toxicity comparison between triptolide and LLDT-8 (15 days by gavage, H&E); format: in vivo, mouse; conditions: 0.5 mg/kg by gavage for 15 days
Protocol: For toxicity experiments, mice (n = 3 for each group) were treated with tritpilide (0.125, 0.25, 0.5mg/kg), LLDT-8 (0.125, 0.25, 0.5mg/kg) consecutively administered by gavage for 15 days. The control group received saline. Mice were sacrificed on the 15th day post-administration and blood, liver, kidney, spleen, testis and epididymis were collected. The main lobe of liver, kidney, spleen and epididymis were fixed in 10% neutral buffered formalin for histological examination, the left testicle was fixed in Davidson’s buffer for 16 hours followed by 10% neutral buffered formalin. Tissue sections were stained with hematoxylin and eosin (H&E). Remaining tissues were stored at -80 °C for RNA and protein extraction.
Supplementary Figure S1 Comparison of testicular toxicity between triptolide(TL) and LLDT-8. Mice (n=3) were weighted before sacrificed on the 15th day post-administration of triptolide, LLDT-8 or saline. The testes were collected and weighted. […] (G-H) Comparison of epididymis weight between triptolide and LLDT-8. Significant difference was determined by one-way Anova, mean ± SD. * p<0.05, *** p<0.001 vs Saline group. # p<0.05, ## p<0.01, ### p<0.001 vs T8 group at the same dosage.

mice = test system: mice; parameters: method as in Zhou et al., 2005; conditions: p.o., ref Zhou et al., 2005; cited from earlier work
[1] = test system: GC-2spd, GC-1spg and TM4 cells; assay: γ-H2AX protein level in three germ-cell lines (western blot); format: cell-based, mouse; conditions: 8h/16h treatment
Protocol: Mouse GC-1spg (spermatogonia-like, ATCC number: CRL-2053), TM4 (Sertoli cell-like, ATCC number: CRL-1715), and GC-2spd (spermatocyte-like, ATCC number: CRL-2196) were purchased from ATCC (Manassas, VA). Cells were grown in a 5% CO2 atmosphere at 37°C. TM4 was cultured in DMEM supplemented with 5% horse serum, 2.5% fetal bovine serum and 1x antibiotic-antimyotic (Cat. NO. 15240062, Life technologies). GC-1spg and GC-2spd were cultured in DMEM supplemented with 10% fetal bovine serum (Cat. No. F2442, Sigma, USA) and 1x antibiotic-antimyotic (Cat.NO. 15240062, Life technologies).
Cells were washed twice with ice-cold PBS (137 mM NaCl, 2.7 mM KCl, 10 mM Na2HPO4, and 1.8 mM KH2PO4, pH 7.4) and lysed in SDS sample buffer. Cell lysates, containing 20 μg of protein, were separated with SDS-PAGE (8%) and transferred to polyvinylidene difluoride membranes. […]
The effects of LLDT-8 on the expression of γ-H2AX was investigated in spermatocyte-like GC-2spd cells (A), spermatogonia-like cells (B) and sertoli-like cells (C) after 8h/16h treatment of LLDT-8 at indicated concentration. The protein level was quantified with ImageQuant software. β-actin was used as a loading control. Significant difference was determined by one-way Anova, Bars represent the mean ± SD, n = 3, * p<0.05, ** p<0.01 vs control group (0 nM).

## CC(C)[C@]12O[C@H]1[C@@H]1O[C@]13[C@]1(O[C@H]1C[C@@]1(O)C4=C(CC[C@]31C)C(=O)OC4)[C@@H]2O [LLDT-8, (5R)-5-hydroxytriptolide]
Testes gene expression; 0.5–1.0 mg/kg, 15 days
  expression of AR, Rhox5, Cldn11, Cst12, ABP and FABP in testes of WT mice: did not reduce
Testes gene expression; 15 days
  expression of Dazl and Prm1 in testes of WT mice: marked decrease
  expression of Hspa2 in testes of WT mice: mild decrease
Testes gene expression; particularly in 1.0 mg/kg group
  expression of Cldn11, Cst12 and FABP in testes of WT mice: increased
Mice testes
  testis morphology (H&E): did not obviously alter the normal morphology of testes
mice
  LD50: 9.3 mg/kg
[1]
  protein levels of γ-H2AX in three germ-cell lines: did not decrease
